Where no end group is shown, it is not given here.
How the values were obtained:
[1] = system: insulitis; assay: Suppression of insulitis in NOD mice by oral administration; type: in vivo; settings: fed orally; for Insulitis Score: amount (mg) per Table 5, sacrificed at ten weeks of age
Procedure: NOD mice (Taconic Labs) were fed one mg of glucagon, or one mg of porcine insulin (both commercially purchased) or equal molar amounts of insulin A-chain, B-chain and B-chain peptides described below (all insulin fragments having been synthesized) twice weekly for five weeks and sacrificed at ten weeks of age.
Control animals were fed a non-pancreatic (i.e., unrelated) peptide, GAP. Insulitis was measured as a semiquantitative insulitis score according to the method described in Zhang, Z. J., PNAS(USA), 88:10252-10256, 1991.
The insulin B-chain peptides corresponded to amino acid residues 1-12 (B1-12), 10-22 (B10-22), 11-30 (B11-30) and 23-30 (B23-30). All animals were fed 10 times over three weeks.

[2] = system: EAE; assay: EAE induced by guinea pig MBP 71-90, feeding of MBP peptides; type: in vivo, Lewis rats; settings: fed; FIG. 14
Procedure: The effects of feeding various peptides to Lewis rats induced for EAE by guinea pig MBP residue nos. 71-90 (the major immunodominant epitope of guinea pig MBP as shown in Example 3 above) were also studied.
EAE was induced by immunizing with 0.25 mg of guinea pig MBP amino acid residue nos 71-90 in Complete Freund's Adjuvant and the effect of feeding various guinea pig MBP peptides on EAE was examined.

[3] = system: EAE; assay: I.V. tolerization with MBP and MBP peptides in EAE induced with whole guinea pig MBP; type: in vivo, SJL/J mice; settings: days 8 and 9 post immunization, FIG. 16
Description: FIG. 16 is a bar graph showing the effect of intravenous tolerization with MBP and disease inducing and non-inducing fragments thereof on induced EAE expression in SJL/J mice.
Finally, the suppression of EAE by I.V. tolerization with MBP and MBP peptides prior to disease expression (on days 8 and 9 post immunization) was examined.

[4] = system: OVA (responder) line; assay: Transwell triggering of suppression by MBP peptides; type: cell-based, rats; settings: peptide added to modulator well with spleen cells of MBP-fed animals; FIG. 11
Description: Transwell Cultures. A dual chamber transwell culture system (Costar, Cambridge, Mass.), which is 24.5 mm in diameter and consists of two compartments separated by a semi-permeable polycarbonate membrane, with a pore size of 0.4 μm, was used. The two chambers are 1 mm apart, allowing cells to be coin-cubated in close proximity without direct cell-to-cell contact. To measure in vitro suppression of proliferative responses in transwell cultures, 5×10^4 MBP- or OVA-specific line cells, raised and maintained as previously described (Ben-Nun, A. et al., Eur. J. Immunol. 11:195, 1981), were cultured with 10^6 irradiated (2,500 rad) thymocytes, in 600 μl of proliferation media in the lower well. Spleen cells from orally tolerized rats or controls (fed BSA) were added to the upper well (5×10^5 cells in 200 μl). Spleen cells were removed 7-14 days after the last feeding, and a single cell suspension was prepared by pressing the spleens through a stainless steel mesh. MBP and OVA (50 μg/ml) were added in a volume of 20 μl. […] In some experiments, modulator cells were added in the lower well together with responder cells, and in these instances modulator cells were irradiated (1,250 rad) immediately before being placed in culture. Proliferation media consisted of RPMI 1640 (Gibco Laboratories, Grand Island, N.Y.) supplemented with […] 2-mercaptoethanol, 1% sodium pyruvate, 1% penicillin and streptomycin, 1% glutamine, 1% HEPES buffer, 1% nonessential amino acids, and 1% autologous serum. Each transwell was performed in quadruplicate. The transwells were incubated at 37° C. in a humidified 6% CO2 and 94% air atmosphere for 72 hours. After 54 hours of culture, each lower well was pulsed with 4 μCi of [^3H]thymidine and at 72 hours split and reseeded to three wells in a round-bottomed 96-well plate (Costar) for harvesting onto fiberglass filters and counting using standard liquid scintillation techniques. Percent suppression =100×(1−Δ A cpm responders cultured with modulators/Δ cpm of responders).
The Transwell System of Example 2 above was used to identify the epitopes present on guinea pig MBP which induce the release of TGF-β from suppressor T-cells.
Peptides corresponding to guinea pig MBP residue nos.

[5] = system: DTH responses; assay: DTH responses in animals fed MBP or MBP peptides; type: in vivo, Lewis rats; settings: FIG. 15
Description: Guinea pig MBP peptide 131-150 was ineffective in this case. Peptides were also fed with STI which prevents their breakdown by gastric juices and enhances their biological effect. DTH responses to whole MBP were suppressed by feeding MBP or any one of the MBP-peptides 21-40, or 71-90.

[6] = system: EAE; assay: EAE induced with PLP peptide 140-160, oral vs. I.V. administration; type: in vivo, SJL/J mice; settings: 0.25 mg every other day
Procedure: 2. Fed Mouse MBP (0.25 mg)
3. Fed Bovine PLP (0.25 mg)
4. Inject I.V. Histone (0.25 mg)
5. Inject I.V. MBP (0.25 mg)
6. Inject I.V. PLP (0.25 mg)
Each group was treated every other day for 7 days. In the intravenous group, the material was injected into the eye plexus. The PLP peptide used was the disease inducing fragment 140-160 of bovine PLP. This peptide has the amino acid sequence H2N-[…]-CO2H (SEQ. ID NO: 13), representing the foregoing amino acid residues.

Molecule | suppression of insulitis (in words) [1] | Insulitis Score [1] | other results
B-Chain: insulin B-chain, synthesized | suppressed insulitis | 1.32 | 
B23-30: insulin B-chain peptide, amino acid residues 23-30 (GFFYTPKT; Insulin B chain; UniProt P01308 47-54, looked up, fragment) | did not | 2.22 | 
glucagon [reference compound] | effective in suppressing insulitis | 1.81 | 
guinea pig MBP 131-150: Guinea pig MBP peptide 131-150 (DYKSKGFKGAHDAQGTLSKI; UniProt P25188 131-150, looked up, fragment) |  |  | down-regulation of EAE induced by guinea pig MBP 71-90 [2]: ineffective; suppression of EAE induced with whole guinea pig MBP [3]: ineffective in suppressing EAE
B10-22: insulin B-chain peptide, amino acid residues 10-22 (HLVEALYLVCGER; ends and bridges not checked; UniProt P01308 34-46, looked up, fragment) | suppressed insulitis | 1.71 | 
B11-30: insulin B-chain peptide, amino acid residues 11-30 (LVEALYLVCGERGFFYTPKT; ends and bridges not checked; UniProt P01308 35-54, looked up, fragment) | suppressed insulitis | 1.44 | 
B1-12: insulin B-chain peptide, amino acid residues 1-12 (FVNQHLCGSHLV; ends and bridges not checked; UniProt P01308 25-36, looked up, fragment) | suppressed insulitis | 1.76 | 
guinea pig MBP 21-40: peptide corresponding to guinea pig MBP amino acid residues 21-40 (MDHARHGFLPRHRDTGILDS; UniProt P25188 21-40, looked up, fragment) |  |  | triggering suppression of proliferation in the transwell system [4]: capable of triggering suppression of proliferation; down-regulation of EAE induced by guinea pig MBP 71-90 [2]: equally effective in down-regulating EAE; DTH responses to guinea pig MBP peptide 71-90 [5]: not affected; DTH responses to whole MBP [5]: suppressed; suppression of EAE induced with whole guinea pig MBP [3]: ineffective in suppressing EAE
guinea pig MBP 101-120: peptide corresponding to guinea pig MBP amino acid residues 101-120 (SQGKGRGLSLSRFSWGAEGQ; UniProt P25188 101-120, looked up, fragment) |  |  | triggering suppression of proliferation in the transwell system [4]: capable of triggering suppression of proliferation
A-Chain: insulin A-chain, synthesized | suppressed insulitis | 1.88 | 
guinea pig MBP 51-70: peptide corresponding to guinea pig MBP amino acid residues 51-70 (APKRGSGKDSHHAARTTHYG; UniProt P25188 51-70, looked up, fragment) |  |  | triggering suppression of proliferation in the transwell system [4]: capable of triggering suppression of proliferation
bovine PLP: Bovine proteolipid protein (protein, listed as Bos taurus) GLLECCARCLVGAPFASLVATGLCFFGVALFCGCGHEALTGTEKLIETYFSKNYQDYEYLINVIHAFQYVIYGTASFFFLYGALLLAYGFYTTGAVRQIFGDYKTTICGKGLSATVTGGQKGRGSRGQHQAHSLERVCHCLGKWLGHPDKFVGITYALTVVWLLVFACSAVPVYIYFNTWTTCQSIAAPSKTSASIGTLCADARMYGVLPWNAFPGKVCGSNLLSICKTAEFQMTFHLFIAAFVGAAATLVSLVTFMIAATYNFAVLKLMGRGTKF |  |  | suppression of PLP-peptide-induced EAE ([6]; administered intravenously, FIG. 13): effective in suppressing EAE; suppression of PLP-peptide-induced EAE ([6]; orally administered, FIG. 12): equally effective in down-regulating PLP-peptide-induced EAE
mouse MBP: Mouse myelin basic protein (protein, UniProt P04370 1-250, looked up) Myelin basic protein: MGNHSGKRELSAEKASKDGEIHRGEAGKKRSVGKLSQTASEDSDVFGEADAIQNNGTSAEDTAVTDSKHTADPKNNWQGAHPADPGNRPHLIRLFSRDAPGREDNTFKDRPSESDELQTIQEDPTAASGGLDVMASQKRPSQRSKYLATASTMDHARHGFLPRHRDTGILDSIGRFFSGDRGAPKRGSGKDSHTRTTHYGSLPQKSQHGRTQDENPVVHFFKNIVTPRTPPPSQGKGGRDSRSGSPMARR |  |  | suppression of PLP-peptide-induced EAE ([6]; orally administered, FIG. 12): equally effective in down-regulating PLP-peptide-induced EAE
